“Also recorded” adds a separate entry of the source. Where two headings read alike, the source gives them in different places.
Key:
ERα [1] = target: T1, ERα (Homo sapiens, UniProt P03372); parameters: Using a stably transfected breast cancer cell line that expresses endogenous ERα; endogenous in cells; host or cells: T47D-KBluc; conditions: T47D cells, conditions identical to TPSF; see Mao C et al., 2008; read-out: IC50 for inhibition of E2-ERα-mediated (ERE)3-luciferase expression; cited from earlier work
T1 sequence (P03372 1-595): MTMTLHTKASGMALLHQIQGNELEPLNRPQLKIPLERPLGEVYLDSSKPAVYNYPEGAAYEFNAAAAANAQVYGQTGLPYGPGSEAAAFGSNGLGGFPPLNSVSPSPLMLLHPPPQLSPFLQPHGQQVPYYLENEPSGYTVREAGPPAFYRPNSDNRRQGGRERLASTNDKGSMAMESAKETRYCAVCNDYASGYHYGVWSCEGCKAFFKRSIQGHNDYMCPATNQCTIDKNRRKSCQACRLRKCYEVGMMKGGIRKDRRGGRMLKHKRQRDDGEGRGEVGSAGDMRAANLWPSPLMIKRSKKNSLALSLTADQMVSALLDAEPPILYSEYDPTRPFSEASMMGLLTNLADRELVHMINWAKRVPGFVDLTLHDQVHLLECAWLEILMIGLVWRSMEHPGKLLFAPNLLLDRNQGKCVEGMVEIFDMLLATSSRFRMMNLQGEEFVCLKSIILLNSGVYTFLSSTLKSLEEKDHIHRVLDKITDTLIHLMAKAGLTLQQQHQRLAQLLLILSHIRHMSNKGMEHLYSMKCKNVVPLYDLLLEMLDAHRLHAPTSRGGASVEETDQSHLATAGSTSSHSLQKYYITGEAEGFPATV

NF-κB = experiment: NF-κB-mediated induction of IL-8 mRNA by TNF-α in MCF-7 cells; format: cell-based, human
Experimental: FIG. 14 illustrates results of testing for specific inhibition of E2-ERα-mediated gene expression. The effects of TPSF on an NF-κB regulated gene, IL-8, were tested in MCF-7 cells maintained for 24 hours in medium containing 10 ng/ml TNF-α alone or TNF-α and 30 μM TPSF. RNA was extracted and IL-8 mRNA levels were measured by quantitative (q)RT-PCR. Data shown is the average of 3 experiments±SEM.
(§1) Endogenous Gene Expression. MCF-7 cells or MCF7ERαHA cells were maintained for 4 days in medium containing 5% CD calf serum (MCF-7 cells) or 10% 6×CD-FBS (MCF7ERαHA cells). In assays of TPSF inhibition of PI-9 induction, cells were plated, incubated for 24 hours in the indicated concentrations of TPSF and then maintained 4 hours with and without E2, with and without TPSF. To induce ERα, MCF7ERαHA cells were also maintained in 0.5 μg/ml Dox for 24 hours prior to addition of E2 or OHT with or without TPSF. For induction of cyclin D1, 24 hours after plating the cells, E2 with and without TPSF was added, the cells were maintained for 24 hours, RNA was extracted and mRNA levels were determined by quantitative RT-PCR as described (19, 26). Actin mRNA levels were used as the qRT-PCR internal standard. The primers and sequences used in qRT-PCR were as follows.

ERα [2] = target: T1, ERα; experiment: Endogenous PI-9 mRNA induction in MCF-7 cells (qRT-PCR); format: cell-based; parameters: endogenous in cells; conditions: 10 nM E2, read-out: IC50 for inhibition of E2-ERα induction of endogenous PI-9 mRNA (Endog. PI-9)
Experimental: as §1

BT474 cells = experiment: E2-ERα-dependent growth of BT474 cells (MTS); format: cell-based; conditions: Homo sapiens, BT-474, 96 h, 100 pM E2, 4 days, read-out: IC50 for inhibition of E2-ERα-dependent growth of BT474 cells
Experimental: FIG. 20 illustrates further activity of TPSF in the inhibition of tamoxifen-resistant human breast cancer cells. The effects of TPSF on the E2-ERα-dependent growth of tamoxifen-resistant BT474 and ZR-75 cells were assessed. […] The cells were maintained in medium containing 10% CD-FBS (ZR-75) or 10% CD-CS (BT474) containing or lacking 100 pM E2 and the indicated concentrations of TPSF. Viable cells were measured by comparison to a standard curve of cell number versus absorbance using the MTS assay. Data represents the average of at least 4 wells. IC50 values for TPSF inhibition of cell growth were calculated by curve-fitting using Sigma Plot.
Assays for Cell Growth and Viability. Cells were maintained in the media listed above containing CD-treated serum for at least 4 days prior to the experiment. To minimize cell aggregation, MCF-7 cells were harvested in 10 mM Hepes, pH 7.4, 1 mM EDTA. Other cell lines were harvested in trypsin-EDTA. 1,000 cells were plated into each well of a 96 well plate. For slow growing ZR-75 cells, 2,000 cells were plated/well. The cells were maintained in medium containing CD-treated serum for 24 hours. At 24 hours the medium was changed and E2 and DMSO vehicle or TPSF in DMSO was added. […] After 4 days viable cells were determined using a cell viability test, Promega CellTiter 96 Aqueous One Solution Cell Proliferation Assay (MTS) (Promega, Wis.).

Row | SMILES | IC50 (ERα [1]) | effect on NF-κB-mediated induction of IL-8 mRNA by TNF-α (NF-κB; 30 μM, 10 ng/ml TNF-α, 24 h) | IC50 (NF-κB; Homo sapiens, MCF7, TNF-α, IL-8 mRNA, read-out: IC50 for inhibition of NF-κB gene expression) | IC50 (ERα [2]) | IC50 (BT474 cells)
1 | Cn1c(=O)c2nc(CSCc3ccccc3)[nH]c2n(C)c1=O [Compound 95910, 8-Benzylsulfanylmethyl-1,3-dimethyl-3,7-dihydro-purine-2,6-dione] | 11000 nM |  |  |  | 
2 | Cn1c(=S)c2[nH]c(SCCCC(=O)c3ccc(F)cc3)nc2n(C)c1=O [TPSF, Butyrophenone, p-fluoro-4-(1,2,3,6,-tetrahydro-1,3-dimethyl-2-oxo-6-thionopurin-8-ylthio)] |  | no effect; also recorded: absence of an effect | > 30000 nM | 200 nM | 1600 nM
